These results are taken from patent US11414429B2, “Compound or pharmaceutically acceptable salt thereof” (RIKEN, priority 2016, dated 2022).

The target in assay [1] is T1, tankyrase 1 (TNKS 1) (Homo sapiens, UniProt O95271).
T1 construct: 1,024-1,327aa; made in house; host or cells: cell-free protein synthesis system
The assay can be described thus: Tankyrase inhibitory activity test (ELISA, self-polyADP ribosylation), tankyrase 1. The class given is biochemical. The note with it: ELISA, self-polyADP ribosylation; class symbols; read-out: TNKS1 (inhibitory activity against tankyrase 1, IC50 value). In a few lines:
(§1)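 IC50 was fitted to residual self-polyADP-ribosylation activity, detected by HRP-streptavidin chemiluminescence. Plate-bound Flag fusions (TNKS1 1,024-1,327aa SAM+PARP; TNKS2 613-1,116aa ANK5+SAM+PARP, cell-free synthesized) saw compound for 10 min at room temperature in 50 mM Tris-HCl pH 8.0, 4 mM MgCl2, 0.2 mM DTT. Reaction with 225 μM NAD/25 μM 6-biotin-17-NAD solution ran 45 min at 30 °C.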
Background: ELISA stands for enzyme-linked immunosorbent assay.

Assay [2] concerns the target T2, tankyrase 2 (TNKS 2) (Homo sapiens, UniProt Q9H2K2).
T2 construct: 613-1, 116aa; made in house; host or cells: cell-free protein synthesis system
The assay can be described thus: Tankyrase inhibitory activity test (ELISA, self-polyADP ribosylation), tankyrase 2. It counts as biochemical. The note with it: ELISA, self-polyADP ribosylation; class symbols; read-out: TNKS2 (inhibitory activity against tankyrase 2, IC50 value). In a few lines: as §1

Assay [3] concerns human colorectal cancer cell line, COLO-320DM. The assay can be described thus: Cell proliferation inhibitory activity test (Celltiter-Glo Luminescent Cell Viability Assay). The class given is cell-based. The note with it: COLO-320DM cells, 96 hours, class symbols, read-out: COLO-320 DM (cell proliferation inhibitory activity, GI50 value). In a few lines:
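GI50 is taken as the concentration halving cell growth versus 1% DMSO control, measured by ATP luminescence. Compound exposure lasted 96 h at 37° C. under 5% CO2, after overnight seeding in RPMI-1640 with 10% FBS and 2 mM glutamine.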
(In general: ATP-based viability assays read luminescence as a measure of living cells.)

Structures are written as SMILES.

T1 sequence (O95271 1024-1327): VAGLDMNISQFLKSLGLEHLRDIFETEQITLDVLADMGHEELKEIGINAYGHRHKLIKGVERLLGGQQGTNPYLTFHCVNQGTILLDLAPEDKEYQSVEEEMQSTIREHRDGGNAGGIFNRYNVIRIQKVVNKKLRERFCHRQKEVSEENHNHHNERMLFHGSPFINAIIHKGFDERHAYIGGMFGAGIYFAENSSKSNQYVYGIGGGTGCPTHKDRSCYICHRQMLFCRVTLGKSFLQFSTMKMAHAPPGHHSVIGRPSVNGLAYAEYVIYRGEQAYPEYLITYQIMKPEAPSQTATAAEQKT
T2 sequence (Q9H2K2 613-1166): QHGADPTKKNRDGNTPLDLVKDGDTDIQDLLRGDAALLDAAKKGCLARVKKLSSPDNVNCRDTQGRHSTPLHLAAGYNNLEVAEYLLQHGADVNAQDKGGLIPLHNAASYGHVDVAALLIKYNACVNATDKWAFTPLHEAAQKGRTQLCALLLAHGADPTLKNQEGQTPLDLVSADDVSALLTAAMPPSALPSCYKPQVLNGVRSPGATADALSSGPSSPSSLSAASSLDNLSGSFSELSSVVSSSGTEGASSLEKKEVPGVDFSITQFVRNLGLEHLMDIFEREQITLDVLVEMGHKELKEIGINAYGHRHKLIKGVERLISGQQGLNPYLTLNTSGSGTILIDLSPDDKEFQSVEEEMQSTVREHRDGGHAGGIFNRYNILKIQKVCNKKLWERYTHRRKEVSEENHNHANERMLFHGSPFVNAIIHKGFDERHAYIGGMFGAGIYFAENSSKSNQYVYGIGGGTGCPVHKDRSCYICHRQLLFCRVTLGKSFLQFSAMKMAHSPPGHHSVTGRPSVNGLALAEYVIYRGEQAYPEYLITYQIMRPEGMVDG

As usually defined, the IC50 is the concentration that gives 50% inhibition. `CN1CCN(CCOc2cc(F)c3c(c2)N(CC(F)(F)F)C(=O)C32CCN(c3nc4c(c(=O)[nH]3)CCCN4C)CC2)CC1` [Example 406, 4-fluoro-1′-(8-methyl-4-oxo-3,4,5,6,7,8-hex-ahydropyrido[2,3-d]pyrimidin-2-yl)-6-[2-(4-methylpiperazin-1-yl)ethoxy]-1-(2,2,2-trifluoroethyl)spiro [indoline-3,4′-piperidin]-2(1H)-one]: the IC50 in assay [1] and in assay [2] was 20 to 200 nM throughout. Also, the GI50 in assay [3] was less than 100 nM.
Consider `COCCN1C(=O)C2(CCN(c3nc4c(c(=O)[nH]3)CCCN4C)CC2)c2c(F)cc(N3CCN(C)CC3)cc21` [Example 407, 4-fluoro-1-(2-methoxy-ethyl)-1′-(8-methyl-4-oxo-3,4,5,6,7,8-hexahydropyrido[2,3-d]pyrimidin-2-yl)-6-(4-methylpiperazin-1-yl) spiro[indoline-3,4′-piperidin]-2(1H)-one], for which the IC50 was 20 to 200 nM in assay [1] and less than 20 nM in assay [2]. The GI50 in assay [3] lay within 100 to 600 nM.
The like results for `COCCN1C(=O)C2(CCN(c3nc4c(c(=O)[nH]3)CCCN4C)CC2)c2c(F)cc(OCC(=O)O)cc21` [Example 409] were, in that order, less than 20 nM, less than 20 nM and 600 to 1000 nM.
Taken in the same sequence, the figures for `COCCN1C(=O)C2(CCN(c3nc4c(c(=O)[nH]3)CCCN4C)CC2)c2c(F)cc(OCCO)cc21` [Example 410, 4-fluoro-6-(2-hydroxy-ethoxy)-1-(2-methoxyethyl)-1′-(8-methyl-4-oxo-3,4,5,6,7,8-hexahydro-pyrido[2,3-d]pyrimi-din-2-yl)spiro[indoline-3,4′-piperidin]-2(1H)-one] were less than 20 nM, less than 20 nM and 100 to 600 nM.
As to `CN1CCCc2c1nc(N1CCC3(CC1)C(=O)N(C)c1c(OCC(=O)O)ccc(F)c13)[nH]c2=O` [Example 412, 2-[4-fluoro-1′-(4-hy-droxy-8-methyl-6,7-di-hydro-5H-pyrido[2,3-d]pyrimidin-2-yl)-1-meth-yl-2-oxospiro[indole-3,4′-piperidin]-7-yl] oxyacetic acid], the IC50 in assay [1] and in assay [2] was less than 20 nM throughout. The GI50 in assay [3] was 600 to 1000 nM.
Turning to `CN1CCC(COc2ccc(F)c3c2N(C)C(=O)C32CCN(c3nc4c(c(=O)[nH]3)CCCN4C)CC2)CC1` [Example 413], the results for the IC50 in assay [1] and in assay [2] were 20 to 200 nM and less than 20 nM, respectively. In addition, the GI50 in assay [3] lay in the range of 600 to 1000 nM.
The like results for `CN1C(=O)C2(CCN(c3nc4c(c(=O)[nH]3)CCCN4)CC2)c2c(F)ccc(OCCO)c21` [Example 414, 4-fluoro-7-(2-hydroxy-ethoxy)-1′-(4-hydroxy-5,6,7,8-tetrahdyro-pyrido[2,3-d]pyrimidin-2-yl)-1-methyl-spiro [indole-3,4′-piperidin]-2-one] were, in that order, less than 20 nM, less than 20 nM and 600 to 1000 nM.
The like results for `CN1CCCc2c1nc(N1CCC3(CC1)C(=O)N(C)c1c(OCc4nnn[nH]4)ccc(Cl)c13)[nH]c2=O` [Example 415, 4-chloro-1′-(4-hydroxy-8-methyl-6,7-dihydro-5H-pyrido[2,3-b]py-rimidin-2-yl)-1-meth-yl-7-(2H-tetrazol-5-yl-methoxy)spiro[indole-3,4′-piperidin]-2-one] were, in that order, less than 20 nM, less than 20 nM and 600 to 1000 nM.
Turning to `COCCN1C(=O)C2(CCN(c3nc4c(c(=O)[nH]3)CCCN4C)CC2)c2c(F)cc(N3CCNCC3)cc21` [Example 416], the IC50 in assay [1] and in assay [2] was less than 20 nM throughout. In addition, in assay [3], the GI50 fell in the range of 100 to 600 nM.
In the case of `C[C@@H]1CN(c2cc(F)c3c(c2)N(CC(F)(F)F)C(=O)C32CCN(c3nc4c(c(=O)[nH]3)CCCN4C)CC2)C[C@H](C)N1` [Example 417, 6-(cis-3,5-dimethyl-piperazin-1-yl)-4-fluoro-1′-(8-methyl-4-oxo-3,4,5,6,7,8-hexahydropyrido[2,3-d]pyrimidin-2-yl)-1-(2,2,2-trifluoroethyl) spiro[indoline-3,4′-piperidin]-2-one], the IC50 in assay [1] and in assay [2] was less than 20 nM each time. The GI50 in assay [3] lay within 600 to 1000 nM.
Consider `COCCN1C(=O)C2(CCN(c3nc4c(c(=O)[nH]3)CCCN4C)CC2)c2c(F)cc(OCc3nnn[nH]3)cc21` [Example 418, 4-fluoro-1-(2-methoxyethyl)-1′-(8-methyl-4-oxo-3,4,5,6,7,8-hexahydropyrido[2,3-d]pyrimidin-2-yl)-6-[(1H-tetrazole-5-yl)methoxy]spiro[indoline-3,4′-piperidine]-2(1H)-one], for which the IC50 in assay [1] and in assay [2] was less than 20 nM each time. Also, the GI50 in assay [3] lay within 100 to 600 nM.
In the case of `CN1CCCc2c1nc(N1CCC3(CC1)C(=O)N(CC(F)(F)F)c1cc(OCc4nnn[nH]4)cc(F)c13)[nH]c2=O` [Example 419, 6-[(1H-tetrazol-5-yl)methoxy]-4-fluoro-1′-(8-methyl-4-oxo-3,4,5,6,7,8-hexahydro-pyrido[2,3-d]pyrimidin-2-yl)-1-(2,2,2-trifluoro-ethyl)spiro[indoline-3,4′-piperidin]-2(1H)-one], the 50% inhibitory concentration (IC50) in assay [1] and in assay [2] was less than 20 nM throughout. In addition, in assay [3], the GI50 was less than 100 nM.
Turning to `CN1CCC(Oc2ccc(F)c3c2N(C)C(=O)C32CCN(c3nc4c(c(=O)[nH]3)CCCN4C)CC2)CC1` [Example 420, 4-fluoro-1′-(4-hydroxy-8-methyl-6,7-dihydro-5H-pyrido[2,3-d]pyrimidin-2-yl)-1-methyl-7-(1-methylpiperidin-4-yl)oxyspiro[indole-3,4′-piperidin]-2-one], the IC50 in assay [1] and in assay [2] was less than 20 nM in each case. In assay [3], the GI50 was in the range of 100 to 600 nM.
Turning to `CN1CCCc2c1nc(N1CCC3(CC1)C(=O)N(C)c1c(OCC4CCNCC4)ccc(F)c13)[nH]c2=O` [Example 421, 4-fluoro-1′-(4-hydroxy-8-methyl-6,7-dihydro-5H-pyrido[2,3-d]pyrimidin-2-yl)-1-meth-yl-7-(piperidin-4-yl-methoxy)spiro[indole-3,4′-piperidin]-2-one], the IC50 in assay [1] and in assay [2] was less than 20 nM each time. Further, the GI50 in assay [3] fell in the range of 100 to 600 nM.
For the molecule `CN1CCCc2c1nc(N1CCC3(CC1)C(=O)N(C)c1cc(N4CCC(C(=O)O)CC4)cc(F)c13)[nH]c2=O` [Example 422, 1-[4-fluoro-1-methyl-1′-(8-methyl-4-oxo-3,4,5,6,7,8-hexahydro-pyrido[2,3-d]pyrimi-din-2-yl)-2-oxospiro [indoline-3,4′-piperidin]-6-yl]piperidine-4-carboxylic acid], the IC50 in assay [1] and in assay [2] was less than 20 nM in each case. Also, in assay [3], the GI50 is less than 100 nM.
Take `CN1CCCc2c1nc(N1CCC3(CC1)C(=O)N(C)c1cc(N4CC(C(=O)O)C4)cc(F)c13)[nH]c2=O` [Example 423, 1-[4-fluoro-1-methyl-1′-(8-methyl-4-oxo-3,4,5,6,7,8-hexahydro-pyrido[2,3-d]pyrimi-din-2-yl)-2-oxospiro[in-doline-3,4′-piperidin]-6-yl]azetidine-3-carboxylic acid]: the IC50 in assay [1] and in assay [2] was less than 20 nM throughout. In addition, the GI50 in assay [3] was less than 100 nM.
As to `CN1CCCc2c1nc(N1CCC3(CC1)C(=O)N(CC(N)=O)c1cc(F)cc(F)c13)[nH]c2=O` [Example 424, 2-[4,6-difluoro-1′-(8-methyl-4-oxo-3,4,5,6,7,8-hexahydropyrido [2,3-d]pyrimidin-2-yl)-2-oxospiro[indoline-3,4′-piperidin]-1(2H)-yl]acetamide], the IC50 in assay [1] and in assay [2] was less than 20 nM each time. Moreover, the GI50 in assay [3] lay within 100 to 600 nM.
As to `CN1CCCc2c1nc(N1CCC3(CC1)C(=O)N(C)c1c(OC4CC5CCC(C4)N5C)ccc(Cl)c13)[nH]c2=O` (stereo not drawn) [Example 425, 4-chloro-1′-(4-hydroxy-8-methyl-6,7-dihydro-5H-pyrido[2,3-d]pyrimidin-2-yl)-1-methyl-7-[(8-methyl-8-azabicyclo [3.2.1]octan-3-yl)oxy] spiro[indole-3,4′-piperidin]-2-one], the IC50 in assay [1] and in assay [2] was less than 20 nM each time. In assay [3], the GI50 was 100 to 600 nM.
For `CN1C(=O)C2(CCN(c3nc4c(c(=O)[nH]3)CCCN4)CC2)c2c(F)ccc(OCC(C)(C)O)c21` [Example 426, 4-fluoro-7-(2-hydroxy-2-methylpropoxy)-1′-(4-hydroxy-5,6,7,8-tetrahydropyrido[2,3-d]pyrimidin-2-yl)-1-methyl-spiro[indole-3,4′-piperidin]-2-one], the IC50 in assay [1] and in assay [2] was less than 20 nM throughout. The GI50 in assay [3] lay in the range of 100 to 600 nM.
Regarding `CN1CCCc2c1nc(N1CCC3(CC1)C(=O)N(C)c1cc(OCC(=O)NS(C)(=O)=O)cc(F)c13)[nH]c2=O` [Example 427, 2-{[4-fluoro-1-methyl-1′-(8-methyl-4-oxo-3,4,5,6,7,8-hexahydro-pyrido[2,3-d]pyrimi-din-2-yl)-2-oxospiro [indoline-3,4′-piperidin]-6-yl]oxy}-N-(methyl-sulfonyl)acetamide], the IC50 in assay [1] and in assay [2] was less than 20 nM throughout. For the same molecule, the GI50 in assay [3] lay within 600 to 1000 nM.
